Measured values published in patent US11008297B2, “Bio-based, multi-aromatic compounds, and methods of making and using same” (ROWAN UNIVERSITY, priority 2017, dated 2021).

Assay: UV-VIS spectroscopy during titration with sodium hydroxide (pH dependence of absorbance)
Assay type: physicochemical
Details: 0.25 g in 100 mL deionized water, titrated with 0.1 M sodium hydroxide, UV-VIS at every 0.5 pH
Procedure: FIG. 8 comprises a graph illustrating maximum absorbance as a function of pH for a compound of the invention.
Triguaiacol (0.25 g, Example 4) was dissolved in 100 mL of deionized water. The mixture was titrated with 0.1 M sodium hydroxide solution. At every 0.5 pH, UV-VIS spectroscopy was performed on a portion of the mixture. The wavelength in the absorbance spectrum where the absorbance is at a maximum was measured.

wavelength in the absorbance spectrum where the absorbance is at a maximum: decrease with increasing pH
SMILES: COc1cc(C(c2ccc(O)c(OC)c2)c2ccc(O)c(OC)c2)ccc1O [Triguaiacol, 4,4′,4″-methanetriyltris(2-methoxyphenol)]
